Data taken from patent US20020111274A1, “1-alkyl-3-[1-(substituted phenyl) benzotriazol-6-yl] uracils” (BASF Aktiengesellschaft, priority 2000, published 2002).

What was measured:
Set-up in all cases: scale not given here
ZEAMX Corn, Field [1] = assay: Preemergence herbicidal evaluation, ZEAMX; type: in vivo, Zea mays, L. (Sammel-Bezeichnung); conditions: preemergence
Procedure, shortened: (§1)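 Compound applied preemergence as an aqueous acetone spray onto freshly planted cups, dose equivalent approx. 0.013 to 0.800 kg/ha. Evaluation by rating at weeks 4–5.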

ORYSAT Rice, Tebonnet [2] = assay: Postemergence herbicidal evaluation, ORYSAT; type: in vivo, Oryza sativa, (L.); conditions: postemergence spray, rated about two-three weeks after treatment
Procedure, shortened: (§2)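 Visual injury rating ~2–3 wk post-spray; replicate tests averaged. Two-week-old seedlings; foliar spray at 40 psi; 0.006–0.400 kg ai/ha in 80/20 acetone/water + 1.0% methylated seed oil.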

ORYSAT Rice, Tebonnet [3] = assay: Preemergence herbicidal evaluation, ORYSAT; type: in vivo, Oryza sativa, (L.); conditions: preemergence
Procedure, shortened: as §1

[4] = test system: CHEAL Lambsquarters, Common; assay: Postemergence herbicidal evaluation, CHEAL; type: in vivo, Chenopodium album, L.; conditions: postemergence spray, rated about two-three weeks after treatment
Procedure, shortened: as §2

[5] = test system: IPOHE Morningglory, Ivyleaf; assay: Postemergence herbicidal evaluation, IPOHE; type: in vivo, Ipomoea hederacea, (L.) Jacq.; conditions: postemergence spray, rated about two-three weeks after treatment
Procedure, shortened: as §2

GALAP Galium [6] = assay: Preemergence herbicidal evaluation, GALAP; type: in vivo, Galium aparine; conditions: preemergence
Procedure, shortened: as §1

GALAP Galium [7] = assay: Postemergence herbicidal evaluation, GALAP; type: in vivo, Galium aparine; conditions: postemergence spray, rated about two-three weeks after treatment
Procedure, shortened: as §2

ECHOG Barnyardgrass [8] = assay: Postemergence herbicidal evaluation, ECHOG; type: in vivo, Echinochloa crus-galli, (L.) Beau; conditions: postemergence spray, rated about two-three weeks after treatment
Procedure, shortened: as §2

ABUTH Velvetleaf [9] = assay: Postemergence herbicidal evaluation, ABUTH; type: in vivo, Abutilon theophrasti, Medic.; conditions: postemergence spray, rated about two-three weeks after treatment
Procedure, shortened: as §2

[10] = test system: TRZAWR Wheat, Winter, cv Riband; assay: Postemergence herbicidal evaluation, TRZAWR; type: in vivo, Triticum aestivum; conditions: postemergence spray, rated about two-three weeks after treatment
Procedure, shortened: as §2

GLXMAW Soybean, Williams [11] = assay: Postemergence herbicidal evaluation, GLXMAW; type: in vivo, Glycine max, (L.) Merr. cv Williams; conditions: postemergence spray, rated about two-three weeks after treatment
Procedure, shortened: as §2

SETVI Foxtail, Green [12] = assay: Postemergence herbicidal evaluation, SETVI; type: in vivo, Setaria viridis, (L.) Beau; conditions: postemergence spray, rated about two-three weeks after treatment
Procedure, shortened: as §2

ABUTH Velvetleaf [13] = assay: Preemergence herbicidal evaluation, ABUTH; type: in vivo, Abutilon theophrasti, Medic.; conditions: preemergence
Procedure, shortened: as §1

[14] = test system: TRZAWR Wheat, Winter, cv Riband; assay: Preemergence herbicidal evaluation, TRZAWR; type: in vivo, Triticum aestivum; conditions: preemergence
Procedure, shortened: as §1

CASOB Sicklepod [15] = assay: Preemergence herbicidal evaluation, CASOB; type: in vivo, Cassia obtusifolia, L.; conditions: preemergence
Procedure, shortened: as §1

ZEAMX Corn, Field [16] = assay: Postemergence herbicidal evaluation, ZEAMX; type: in vivo, Zea mays, L. (Sammel-Bezeichnung); conditions: postemergence spray, rated about two-three weeks after treatment
Procedure, shortened: as §2

CASOB Sicklepod [17] = assay: Postemergence herbicidal evaluation, CASOB; type: in vivo, Cassia obtusifolia, L.; conditions: postemergence spray, rated about two-three weeks after treatment
Procedure, shortened: as §2

ECHOG Barnyardgrass [18] = assay: Preemergence herbicidal evaluation, ECHOG; type: in vivo, Echinochloa crus-galli, (L.) Beau; conditions: preemergence
Procedure, shortened: as §1

[19] = test system: CHEAL Lambsquarters, Common; assay: Preemergence herbicidal evaluation, CHEAL; type: in vivo, Chenopodium album, L.; conditions: preemergence
Procedure, shortened: as §1

GLXMAW Soybean, Williams [20] = assay: Preemergence herbicidal evaluation, GLXMAW; type: in vivo, Glycine max, (L.) Merr. cv Williams; conditions: preemergence
Procedure, shortened: as §1

AMBEL Ragweed, Common [21] = assay: Postemergence herbicidal evaluation, AMBEL; type: in vivo, Ambrosia artemisifolia, L.; conditions: postemergence spray, rated about two-three weeks after treatment
Procedure, shortened: as §2

[22] = test system: IPOHE Morningglory, Ivyleaf; assay: Preemergence herbicidal evaluation, IPOHE; type: in vivo, Ipomoea hederacea, (L.) Jacq.; conditions: preemergence
Procedure, shortened: as §1

SETVI Foxtail, Green [23] = assay: Preemergence herbicidal evaluation, SETVI; type: in vivo, Setaria viridis, (L.) Beau; conditions: preemergence
Procedure, shortened: as §1

AMBEL Ragweed, Common [24] = assay: Preemergence herbicidal evaluation, AMBEL; type: in vivo, Ambrosia artemisifolia, L.; conditions: preemergence
Procedure, shortened: as §1

Structure (SMILES): C=CCOc1ccc(C)cc1-n1nnc2cc(F)c(-n3c(=O)cc(C(F)(F)F)n(C)c3=O)cc21 [Example 42]
- ZEAMX herbicidal rating (ZEAMX Corn, Field [1]; rate 0.016 kg/ha): 0.0
- ZEAMX herbicidal rating (ZEAMX Corn, Field [1]; rate 0.032 kg/ha): 0.0
- ZEAMX herbicidal rating (ZEAMX Corn, Field [1]; rate 0.062 kg/ha): 1.0
- ZEAMX herbicidal rating (ZEAMX Corn, Field [1]; rate 0.125 kg/ha): 4.0
- Postemergence herbicidal rating ORYSAT (ORYSAT Rice, Tebonnet [2]; 0.008 kg/ha): 2.0
- Postemergence herbicidal rating ORYSAT (ORYSAT Rice, Tebonnet [2]; 0.016 kg/ha): 2.5
- Postemergence herbicidal rating ORYSAT (ORYSAT Rice, Tebonnet [2]; 0.032 kg/ha): 2.5
- Postemergence herbicidal rating ORYSAT (ORYSAT Rice, Tebonnet [2]; 0.062 kg/ha): 2.5
- ORYSAT herbicidal rating (ORYSAT Rice, Tebonnet [3]; rate 0.016 kg/ha): 0.0
- ORYSAT herbicidal rating (ORYSAT Rice, Tebonnet [3]; rate 0.032 kg/ha): 0.0
- ORYSAT herbicidal rating (ORYSAT Rice, Tebonnet [3]; rate 0.062 kg/ha): 1.0
- ORYSAT herbicidal rating (ORYSAT Rice, Tebonnet [3]; rate 0.125 kg/ha): 1.0
- Postemergence herbicidal rating CHEAL ([4]; 0.008 kg/ha): 2.0
- Postemergence herbicidal rating CHEAL ([4]; 0.016 kg/ha): 6.0
- Postemergence herbicidal rating CHEAL ([4]; 0.032 kg/ha): 7.0
- Postemergence herbicidal rating CHEAL ([4]; 0.062 kg/ha): 7.0
- Postemergence herbicidal rating IPOHE ([5]; 0.008 kg/ha): 9.0
- Postemergence herbicidal rating IPOHE ([5]; 0.016 kg/ha): 9.0
- Postemergence herbicidal rating IPOHE ([5]; 0.032 kg/ha): 9.0
- Postemergence herbicidal rating IPOHE ([5]; 0.062 kg/ha): 9.0
- GALAP herbicidal rating (GALAP Galium [6]; rate 0.016 kg/ha): 0.0
- GALAP herbicidal rating (GALAP Galium [6]; rate 0.032 kg/ha): 0.0
- GALAP herbicidal rating (GALAP Galium [6]; rate 0.062 kg/ha): 0.0
- GALAP herbicidal rating (GALAP Galium [6]; rate 0.125 kg/ha): 0.0
- Postemergence herbicidal rating GALAP (GALAP Galium [7]; 0.008 kg/ha): 1.0
- Postemergence herbicidal rating GALAP (GALAP Galium [7]; 0.016 kg/ha): 1.0
- Postemergence herbicidal rating GALAP (GALAP Galium [7]; 0.032 kg/ha): 1.0
- Postemergence herbicidal rating GALAP (GALAP Galium [7]; 0.062 kg/ha): 1.0
- Postemergence herbicidal rating ECHCG (ECHOG Barnyardgrass [8]; 0.008 kg/ha): 0.0
- Postemergence herbicidal rating ECHCG (ECHOG Barnyardgrass [8]; 0.016 kg/ha): 1.0
- Postemergence herbicidal rating ECHCG (ECHOG Barnyardgrass [8]; 0.032 kg/ha): 1.0
- Postemergence herbicidal rating ECHCG (ECHOG Barnyardgrass [8]; 0.062 kg/ha): 1.0
- Postemergence herbicidal rating ABUTH (ABUTH Velvetleaf [9]; 0.008 kg/ha): 7.0
- Postemergence herbicidal rating ABUTH (ABUTH Velvetleaf [9]; 0.016 kg/ha): 9.0
- Postemergence herbicidal rating ABUTH (ABUTH Velvetleaf [9]; 0.032 kg/ha): 9.0
- Postemergence herbicidal rating ABUTH (ABUTH Velvetleaf [9]; 0.062 kg/ha): 9.0
- Postemergence herbicidal rating TRZAWR ([10]; 0.008 kg/ha): 2.5
- Postemergence herbicidal rating TRZAWR ([10]; 0.016 kg/ha): 2.5
- Postemergence herbicidal rating TRZAWR ([10]; 0.032 kg/ha): 3.0
- Postemergence herbicidal rating TRZAWR ([10]; 0.062 kg/ha): 4.0
- Postemergence herbicidal rating GLXMAW (GLXMAW Soybean, Williams [11]; 0.008 kg/ha): 5.0
- Postemergence herbicidal rating GLXMAW (GLXMAW Soybean, Williams [11]; 0.016 kg/ha): 5.5
- Postemergence herbicidal rating GLXMAW (GLXMAW Soybean, Williams [11]; 0.032 kg/ha): 7.0
- Postemergence herbicidal rating GLXMAW (GLXMAW Soybean, Williams [11]; 0.062 kg/ha): 7.0
- Postemergence herbicidal rating SETVI (SETVI Foxtail, Green [12]; 0.008 kg/ha): 0.0
- Postemergence herbicidal rating SETVI (SETVI Foxtail, Green [12]; 0.016 kg/ha): 2.0
- Postemergence herbicidal rating SETVI (SETVI Foxtail, Green [12]; 0.032 kg/ha): 9.0
- Postemergence herbicidal rating SETVI (SETVI Foxtail, Green [12]; 0.062 kg/ha): 9.0
- ABUTH herbicidal rating (ABUTH Velvetleaf [13]; rate 0.016 kg/ha): 7.0
- ABUTH herbicidal rating (ABUTH Velvetleaf [13]; rate 0.032 kg/ha): 9.0
- ABUTH herbicidal rating (ABUTH Velvetleaf [13]; rate 0.062 kg/ha): 9.0
- ABUTH herbicidal rating (ABUTH Velvetleaf [13]; rate 0.125 kg/ha): 9.0
- TRZAWR herbicidal rating ([14]; rate 0.016 kg/ha): 0.0
- TRZAWR herbicidal rating ([14]; rate 0.032 kg/ha): 0.0
- TRZAWR herbicidal rating ([14]; rate 0.062 kg/ha): 0.0
- TRZAWR herbicidal rating ([14]; rate 0.125 kg/ha): 1.0
- CASOB herbicidal rating (CASOB Sicklepod [15]; rate 0.016 kg/ha): 0.0
- CASOB herbicidal rating (CASOB Sicklepod [15]; rate 0.032 kg/ha): 0.0
- CASOB herbicidal rating (CASOB Sicklepod [15]; rate 0.062 kg/ha): 0.0
- CASOB herbicidal rating (CASOB Sicklepod [15]; rate 0.125 kg/ha): 1.0
- Postemergence herbicidal rating ZEAMX (ZEAMX Corn, Field [16]; 0.008 kg/ha): 5.0
- Postemergence herbicidal rating ZEAMX (ZEAMX Corn, Field [16]; 0.016 kg/ha): 5.0
- Postemergence herbicidal rating ZEAMX (ZEAMX Corn, Field [16]; 0.032 kg/ha): 4.5
- Postemergence herbicidal rating ZEAMX (ZEAMX Corn, Field [16]; 0.062 kg/ha): 5.0
- Postemergence herbicidal rating CASOB (CASOB Sicklepod [17]; 0.008 kg/ha): 0.0
- Postemergence herbicidal rating CASOB (CASOB Sicklepod [17]; 0.016 kg/ha): 0.0
- Postemergence herbicidal rating CASOB (CASOB Sicklepod [17]; 0.032 kg/ha): 4.0
- Postemergence herbicidal rating CASOB (CASOB Sicklepod [17]; 0.062 kg/ha): 4.0
- ECHCG herbicidal rating (ECHOG Barnyardgrass [18]; rate 0.016 kg/ha): 1.0
- ECHCG herbicidal rating (ECHOG Barnyardgrass [18]; rate 0.032 kg/ha): 3.0
- ECHCG herbicidal rating (ECHOG Barnyardgrass [18]; rate 0.062 kg/ha): 3.0
- ECHCG herbicidal rating (ECHOG Barnyardgrass [18]; rate 0.125 kg/ha): 7.0
- CHEAL herbicidal rating ([19]; rate 0.016 kg/ha): 9.0
- CHEAL herbicidal rating ([19]; rate 0.032 kg/ha): 9.0
- CHEAL herbicidal rating ([19]; rate 0.062 kg/ha): 9.0
- CHEAL herbicidal rating ([19]; rate 0.125 kg/ha): 9.0
- GLXMAW herbicidal rating (GLXMAW Soybean, Williams [20]; rate 0.016 kg/ha): 0.0
- GLXMAW herbicidal rating (GLXMAW Soybean, Williams [20]; rate 0.032 kg/ha): 3.0
- GLXMAW herbicidal rating (GLXMAW Soybean, Williams [20]; rate 0.062 kg/ha): 3.0
- GLXMAW herbicidal rating (GLXMAW Soybean, Williams [20]; rate 0.125 kg/ha): 5.0
- Postemergence herbicidal rating AMBEL (AMBEL Ragweed, Common [21]; 0.008 kg/ha): 7.0
- Postemergence herbicidal rating AMBEL (AMBEL Ragweed, Common [21]; 0.016 kg/ha): 7.0
- Postemergence herbicidal rating AMBEL (AMBEL Ragweed, Common [21]; 0.032 kg/ha): 7.0
- Postemergence herbicidal rating AMBEL (AMBEL Ragweed, Common [21]; 0.062 kg/ha): 9.0
- IPOHE herbicidal rating ([22]; rate 0.016 kg/ha): 0.0
- IPOHE herbicidal rating ([22]; rate 0.032 kg/ha): 0.0
- IPOHE herbicidal rating ([22]; rate 0.062 kg/ha): 0.0
- IPOHE herbicidal rating ([22]; rate 0.125 kg/ha): 6.0
- SETVI herbicidal rating (SETVI Foxtail, Green [23]; rate 0.016 kg/ha): 3.0
- SETVI herbicidal rating (SETVI Foxtail, Green [23]; rate 0.032 kg/ha): 7.0
- SETVI herbicidal rating (SETVI Foxtail, Green [23]; rate 0.062 kg/ha): 9.0
- SETVI herbicidal rating (SETVI Foxtail, Green [23]; rate 0.125 kg/ha): 9.0
- AMBEL herbicidal rating (AMBEL Ragweed, Common [24]; rate 0.016 kg/ha): 0.0
- AMBEL herbicidal rating (AMBEL Ragweed, Common [24]; rate 0.032 kg/ha): 0.0
- AMBEL herbicidal rating (AMBEL Ragweed, Common [24]; rate 0.062 kg/ha): 1.0
- AMBEL herbicidal rating (AMBEL Ragweed, Common [24]; rate 0.125 kg/ha): 5.0
